Active and inactive are the calls of the source. The calls are words filed in the database; no cut-off is given here.
Legend:
MDA-MB-231 [1] = test: Antiproliferative activity against human MDA-MB-231 cells assessed as cell growth inhibition
HCC1937 = test: Antiproliferative activity against human HCC1937 cells assessed as cell growth inhibition
MCF7 [2] = test: Inhibition of colony formation in human MCF7 cells at 4 uM incubated for 10 days in presence of 1:1 of compound:Olaparib by crystal violet staining based assay; type: functional, cell-based; details: time 10.0 day
MDA-MB-231 [3] = test: Induction of cell cycle arrest at G2/M phase in human MDA-MB-231 cells at 4 uM by Annexin-V-FLUOS staining based flow cytometry; type: functional
MCF7 [4] = test: Induction of cell cycle arrest at G2/M phase in human MCF7 cells at 4 uM by Annexin-V-FLUOS staining based flow cytometry; type: functional
MDA-MB-231 [5] = test: Antiproliferation activity against human MDA-MB-231 cells assessed as decrease in Ki67 expression at 4 uM incubated for 48 hrs in presence of 1:1 of compound:Olaparib by immunofluorescence analysis; type: functional, cell-based
MDA-MB-231 [6] = test: Induction of apoptosis in human MDA-MB-231 cells assessed as decrease in Bcl-2 level at 4 uM incubated for 2 days in presence of 1:1 of compound:Olaparib by immunoblot analysis; type: functional, cell-based; details: time 2.0 day
MDA-MB-231 [7] = test: Induction of apoptosis in human MDA-MB-231 cells assessed as increase in Bax level at 4 uM incubated for 2 days in presence of 1:1 of compound:Olaparib by immunoblot analysis; type: functional, cell-based; details: time 2.0 day
MDA-MB-231 [8] = test: Antimigratory activity against human MDA-MB-231 cells at 4 uM incubated for 1 hr in presence of 1:1 of compound:Olaparib by wound healing assay; type: functional, cell-based
MCF7 [9] = test: Antimigratory activity in human MCF7 cells assessed as upregulation of E-cadherin level at 4 uM in presence of 1:1 of compound:Olaparib by DAPI staining based immunofluorescence analysis; type: functional, cell-based
MDA-MB-231 [10] = test: Antimigratory activity in human MDA-MB-231 cells assessed as downregulation of MMP-2 level at 4 uM by DAPI staining based immunofluorescence analysis; type: functional, cell-based
MCF7 [11] = test: Antimigratory activity in human MCF7 cells assessed as downregulation of MMP-2 level at 4 uM by DAPI staining based immunofluorescence analysis; type: functional, cell-based
MDA-MB-231 [12] = test: Antimigratory activity in human MDA-MB-231 cells assessed as upregulation of E-cadherin level at 4 uM incubated for 2 days by immunoblot analysis; type: functional, cell-based; details: time 2.0 day
MDA-MB-231 [13] = test: Antimigratory activity in human MDA-MB-231 cells assessed as upregulation of E-cadherin level at 4 uM incubated for 2 days in presence of 1:1 of compound:Olaparib by immunoblot analysis; type: functional, cell-based; details: time 2.0 day
MCF7 [14] = test: Antimigratory activity in human MCF7 cells assessed as upregulation of E-cadherin level at 4 uM incubated for 2 days by immunoblot analysis; type: functional, cell-based; details: time 2.0 day
MDA-MB-231 [15] = test: Antimigratory activity in human MDA-MB-231 cells assessed as downregulation of MMP-2 level at 4 uM incubated for 2 days by immunoblot analysis; type: functional, cell-based; details: time 2.0 day
MDA-MB-231 [16] = test: Antimigratory activity in human MDA-MB-231 cells assessed as downregulation of MMP-2 level at 4 uM incubated for 2 days in presence of 1:1 of compound:Olaparib by immunoblot analysis; type: functional, cell-based; details: time 2.0 day
MDA-MB-231 [17] = test: Induction of hypoxia in human MDA-MB-231 cells assessed as upregulation of HIF-1alpha level at 4 uM incubated for 2 days in presence 1:1 of Olaparib by Western blot analysis; type: functional, cell-based; details: time 2.0 day
MDA-MB-231 [18] = test: Induction of DNA damage in human MDA-MB-231 cells assessed as increase in comet tail length at 4 uM in presence 1:1 of Olaparib by alkaline comet assay; type: functional, cell-based
MCF7 [19] = test: Induction of DNA damage in human MCF7 cells assessed as increase in comet tail length at 4 uM in presence 1:1 of Olaparib by alkaline comet assay; type: functional, cell-based
MDA-MB-231 [20] = test: Induction of DNA damage in human MDA-MB-231 cells assessed as increase in gamma-H2AX level at 4 uM incubated for 48 hrs in presence of 1:1 of compound:Olaparib by DAPI staining based immunofluorescence analysis; type: functional, cell-based
MCF7 [21] = test: Induction of DNA damage in human MCF7 cells assessed as increase in gamma-H2AX level at 4 uM incubated for 48 hrs by DAPI staining based immunofluorescence analysis; type: functional, cell-based
MDA-MB-231 [22] = test: Antiinvasive activity against human MDA-MB-231 cells at 4 uM incubated for 12 hrs in presence of 1:1 of compound:Olaparib by transwell assay; type: functional, cell-based
MDA-MB-231 [23] = test: Antiproliferation activity against human MDA-MB-231 cells xenografted in BALB/c nude mouse assessed as decrease in Ki67 expression at 50 mg/kg, po for 14 days in presence of 1:1 of compound:Olaparib by H and E staining based IHC analysis; type: functional, organism-based; details: time 14.0 day
[24] = molecular target: Vascular endothelial growth factor receptor 1 (Homo sapiens, UniProt P17948); test: Inhibition of VEGFR1 phosphorylation at tyr1333 residue in human MDA-MB-231 cells xenografted in BALB/c nude mouse at 50 mg/kg, po for 14 days in presence of 1:1 of compound:Olaparib by H and E staining based IHC analysis; type: organism-based; details: time 14.0 day
[25] = molecular target: Poly [ADP-ribose] polymerase 1 (Homo sapiens, UniProt P09874); test: Inhibition of PARP1 in human MDA-MB-231 cells xenografted in BALB/c nude mouse at 50 mg/kg, po for 14 days in presence of 1:1 of compound:Olaparib by H and E staining based IHC analysis; type: organism-based; details: time 14.0 day
MDA-MB-231 [26] = test: Antimigratory activity in human MDA-MB-231 cells xenografted in BALB/c nude mouse assessed as upregulation of E-cadherin level at 50 mg/kg, po for 14 days in presence of 1:1 of compound:Olaparib by H and E staining based IHC analysis; type: functional, organism-based; details: time 14.0 day
MDA-MB-231 [27] = test: Induction of HR DNA repair in human MDA-MB-231 cells xenografted in BALB/c nude mouse assessed as decrease in BRCA1 level at 50 mg/kg, po for 14 days in presence of 1:1 of compound:Pazopanib by H and E staining based IHC analysis; type: functional, organism-based; details: time 14.0 day
MDA-MB-231 [28] = test: Induction of DNA damage in human MDA-MB-231 cells xenografted in BALB/c nude mouse assessed as increase in gamma-H2AX level at 50 mg/kg, po for 14 days in presence of 1:1 of compound:Olaparib by Western blot analysis; type: functional, organism-based; details: time 14.0 day
MDA-MB-231 [29] = test: Induction of HR DNA repair in human MDA-MB-231 cells xenografted in BALB/c nude mouse assessed as decrease in RAD51 level at 50 mg/kg, po for 14 days in presence of 1:1 of compound:Olaparib by Western blot analysis; type: functional, organism-based; details: time 14.0 day
MDA-MB-231 [30] = test: Induction of HR DNA repair in human MDA-MB-231 cells xenografted in BALB/c nude mouse assessed as decrease in FOXM1 level at 50 mg/kg, po for 14 days in presence of 1:1 of compound:Olaparib by H and E staining based IHC analysis; type: functional, organism-based; details: time 14.0 day
MDA-MB-231 [31] = test: Antimetastatic activity against human MDA-MB-231 cells xenografted in lungs of BALB/c nude mouse assessed as decrease in lung metastatic nodules at 50 mg/kg administered once a day measured after 14 days in presence of 1:1 of compound:Olaparib by H and E staining based analysis; type: functional, organism-based; details: time 14.0 day

Chain of Vascular endothelial growth factor receptor 1 (P17948 whole entry): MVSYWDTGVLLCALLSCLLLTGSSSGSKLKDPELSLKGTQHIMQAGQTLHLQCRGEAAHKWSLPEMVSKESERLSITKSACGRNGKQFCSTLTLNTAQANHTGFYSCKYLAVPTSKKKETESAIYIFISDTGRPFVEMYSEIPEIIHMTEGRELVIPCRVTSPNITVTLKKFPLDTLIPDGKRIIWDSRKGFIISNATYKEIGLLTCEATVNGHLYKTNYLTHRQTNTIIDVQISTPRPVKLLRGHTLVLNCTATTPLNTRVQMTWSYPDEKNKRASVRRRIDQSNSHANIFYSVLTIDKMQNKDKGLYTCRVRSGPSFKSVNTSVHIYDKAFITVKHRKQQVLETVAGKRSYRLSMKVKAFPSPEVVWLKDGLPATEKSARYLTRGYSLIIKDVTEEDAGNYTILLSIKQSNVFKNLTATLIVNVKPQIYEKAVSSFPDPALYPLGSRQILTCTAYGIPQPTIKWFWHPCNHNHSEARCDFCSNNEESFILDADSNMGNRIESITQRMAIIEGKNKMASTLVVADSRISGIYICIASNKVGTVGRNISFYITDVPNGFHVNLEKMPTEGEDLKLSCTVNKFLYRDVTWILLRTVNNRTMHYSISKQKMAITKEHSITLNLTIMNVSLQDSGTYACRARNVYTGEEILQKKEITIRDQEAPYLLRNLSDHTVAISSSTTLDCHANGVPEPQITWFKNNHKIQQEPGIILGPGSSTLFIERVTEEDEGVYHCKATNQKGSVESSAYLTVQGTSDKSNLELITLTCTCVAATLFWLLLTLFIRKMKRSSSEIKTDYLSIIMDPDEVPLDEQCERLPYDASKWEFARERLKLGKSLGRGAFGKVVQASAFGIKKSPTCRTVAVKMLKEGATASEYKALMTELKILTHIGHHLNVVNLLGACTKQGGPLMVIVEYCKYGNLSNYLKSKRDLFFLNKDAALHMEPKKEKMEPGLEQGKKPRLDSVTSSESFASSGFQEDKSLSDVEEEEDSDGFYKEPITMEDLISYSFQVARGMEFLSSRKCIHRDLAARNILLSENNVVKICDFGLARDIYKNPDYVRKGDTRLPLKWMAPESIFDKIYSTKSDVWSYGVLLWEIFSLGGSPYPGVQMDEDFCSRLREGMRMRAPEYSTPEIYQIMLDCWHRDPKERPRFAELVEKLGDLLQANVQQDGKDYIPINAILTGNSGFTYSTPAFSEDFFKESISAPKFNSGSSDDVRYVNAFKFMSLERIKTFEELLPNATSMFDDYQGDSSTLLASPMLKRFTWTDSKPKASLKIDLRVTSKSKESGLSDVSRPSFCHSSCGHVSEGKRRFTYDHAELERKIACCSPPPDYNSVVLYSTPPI
Chain of Poly [ADP-ribose] polymerase 1 (P09874 whole entry): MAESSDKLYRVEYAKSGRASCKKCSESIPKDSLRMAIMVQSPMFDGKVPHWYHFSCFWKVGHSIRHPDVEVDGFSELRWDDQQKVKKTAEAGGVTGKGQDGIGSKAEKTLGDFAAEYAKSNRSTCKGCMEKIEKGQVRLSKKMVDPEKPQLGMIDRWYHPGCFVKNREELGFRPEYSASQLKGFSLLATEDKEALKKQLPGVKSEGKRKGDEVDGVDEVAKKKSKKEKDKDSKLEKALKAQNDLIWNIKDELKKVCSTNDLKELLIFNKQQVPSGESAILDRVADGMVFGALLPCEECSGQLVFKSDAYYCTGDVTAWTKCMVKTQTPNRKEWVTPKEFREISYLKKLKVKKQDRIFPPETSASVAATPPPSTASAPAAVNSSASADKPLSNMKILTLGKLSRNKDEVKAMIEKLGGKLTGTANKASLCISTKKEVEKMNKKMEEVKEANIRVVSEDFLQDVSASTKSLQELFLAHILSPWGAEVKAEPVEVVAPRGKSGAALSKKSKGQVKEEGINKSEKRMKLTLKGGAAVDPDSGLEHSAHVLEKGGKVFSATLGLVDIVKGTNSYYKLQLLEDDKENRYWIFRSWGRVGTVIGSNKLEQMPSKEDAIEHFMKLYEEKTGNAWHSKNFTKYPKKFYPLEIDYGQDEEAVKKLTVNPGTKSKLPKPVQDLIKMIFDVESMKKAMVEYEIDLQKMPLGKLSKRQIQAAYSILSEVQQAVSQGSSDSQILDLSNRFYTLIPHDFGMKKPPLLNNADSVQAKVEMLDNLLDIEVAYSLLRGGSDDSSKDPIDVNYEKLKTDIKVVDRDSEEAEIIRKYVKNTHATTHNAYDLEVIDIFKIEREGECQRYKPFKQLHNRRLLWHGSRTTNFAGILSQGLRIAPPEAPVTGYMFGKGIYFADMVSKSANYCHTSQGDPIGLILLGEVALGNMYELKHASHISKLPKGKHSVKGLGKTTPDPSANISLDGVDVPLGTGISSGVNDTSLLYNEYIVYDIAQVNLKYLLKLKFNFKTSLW

SMILES: Cc1ccc(Nc2nccc(N(C)c3ccc4c(C)n(C)nc4c3)n2)cc1S(N)(=O)=O [PAZOPANIB]
- IC50 (MDA-MB-231 [1]): > 10 µM
- IC50 (HCC1937): > 10 µM
- inhibition (MCF7 [2]): Active
- Activity (MDA-MB-231 [3]): Active
- Activity (MCF7 [4]): Active
- Activity (MDA-MB-231 [5]): Active
- Activity (MDA-MB-231 [6]): Active
- Activity (MDA-MB-231 [7]): Active
- Activity (MDA-MB-231 [8]): Active
- Activity (MCF7 [9]): Active
- Activity (MDA-MB-231 [10]): Active
- Activity (MCF7 [11]): Active
- Activity (MDA-MB-231 [12]): Active
- Activity (MDA-MB-231 [13]): Active
- Activity (MCF7 [14]): Active
- Activity (MDA-MB-231 [15]): Active
- Activity (MDA-MB-231 [16]): Active
- Activity (MDA-MB-231 [17]): Active
- Activity (MDA-MB-231 [18]): Active
- Activity (MCF7 [19]): Active
- Activity (MDA-MB-231 [20]): Active
- Activity (MCF7 [21]): Active
- Activity (MDA-MB-231 [22]): Active
- Activity (MDA-MB-231 [23]): Active
- inhibition [24]: Active
- inhibition [25]: Active
- Activity (MDA-MB-231 [26]): Active
- Activity (MDA-MB-231 [27]): Active
- Activity (MDA-MB-231 [28]): Active
- Activity (MDA-MB-231 [29]): Active
- Activity (MDA-MB-231 [30]): Active
- Activity (MDA-MB-231 [31]): Active

From ChEMBL document CHEMBL5321287, “Discovery, Synthesis, and Evaluation of Novel Dual Inhibitors of a Vascular Endothelial Growth Factor Receptor and Poly(ADP-Ribose) Polymerase for BRCA Wild-Type Breast Cancer Therapy” (J Med Chem, 2023)
